The values below come from US10004826B2, “Implantable human liver tissue constructs and uses thereof” (Massachusetts Institute of Technology, priority 2010, dated 2018).

One data set concerns the target T1, human CYP2A6 (Homo sapiens, UniProt P11509).
T1 sequence (P11509 1-494): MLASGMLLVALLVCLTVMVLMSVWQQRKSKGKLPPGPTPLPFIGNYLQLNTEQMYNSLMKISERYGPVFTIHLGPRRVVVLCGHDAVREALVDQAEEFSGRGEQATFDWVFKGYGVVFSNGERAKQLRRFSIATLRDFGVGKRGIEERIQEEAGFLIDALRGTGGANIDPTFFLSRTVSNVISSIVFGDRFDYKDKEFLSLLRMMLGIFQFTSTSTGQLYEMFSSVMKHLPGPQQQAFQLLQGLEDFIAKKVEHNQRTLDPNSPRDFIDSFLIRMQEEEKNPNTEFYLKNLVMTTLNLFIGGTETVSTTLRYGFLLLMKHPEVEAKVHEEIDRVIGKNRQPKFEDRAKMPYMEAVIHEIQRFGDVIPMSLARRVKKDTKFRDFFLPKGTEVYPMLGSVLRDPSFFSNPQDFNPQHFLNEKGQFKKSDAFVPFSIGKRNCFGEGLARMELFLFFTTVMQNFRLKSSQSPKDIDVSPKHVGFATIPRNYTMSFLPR
Particulars: athymic nude, mouse, in vivo, ip, 80 mg/kg.

The subject of another data set is hepatitis C virus. Particulars: uPA+/+/SCID model; cited from earlier work.
A further data set relates to human CYP2D6. As to the kind of experiment: Debrisoquine metabolism and pharmacokinetics in humanized C57/BL6 mice. Particulars: debrisoquine 2 mg/kg oral gavage.
The next data set has as its system human liver mimetics. As to the kind of experiment: Human hepatotoxicity in humanized mice by serum human albumin ELISA. In kind it is in vivo, mouse. Conditions: inducers daily at days 4-7 post-implantation; OME oral gavage, RIF i.p.; blood days 2, 5, 7. From the text: Error bars are SEM for n=3 or greater.
Blood was collected by retro-orbital draw on days 2, 5 and 7 days after implantation for drug-treated mice and control mice with acellular hydrogel intraperitoneal implantations. Red bars mark average human serum albumin levels at each timepoint for n=3-6 mice per condition.
Human albumin in serum or media samples was quantified by enzyme-linked immunosorbant assay performed using goat anti-human albumin antibody, horseradish peroxidase detection, and 3,3′,5,5′-tetramethylbenzidine development. Urea was measured by acid- and heat-catalyzed detection of diacetylmonoxime conversion to a colorimetric product. Alanine aminotransfer (ALT) and aspartate aminotransfer (AST) enzymatic levels were detected with clinical kits based on colorimetric endpoint methods.
A general note: ELISA stands for enzyme-linked immunosorbent assay.

The subject of data set [1] is encapsulated human hepatocytes. In words: Albumin secretion and urea synthesis of HEP/FIB encapsulated in peptide-derivatized PEG-DA hydrogel. Format: cell-based. Conditions: 10 μmol/ml peptide; vs RGES controls; one week in vitro. As for the experimental part:
Liver mimetics were fabricated using a hydrogel polymerization apparatus. In brief, cellular pre-polymer solution was loaded into a 20-mm diameter, […] silicone spacer, and the solution exposed to UV light from a spot curing system with collimating lens (320-390 nm, 10 mW/cm^2, 20-30 s; EXFO Lite). […] Acrylate-PEG-peptide monomers were synthesized by conjugating RGDS or RGES to acrylate-PEG-N-hydroxysuccinimide (3.4 kDa) at a 1:1 molar ratio in 50 mM sodium bicarbonate buffer (pH 8.5). Reactions were dialyzed overnight against […] MWCO cellulose ester membrane and lyophilized for long-term storage at −80° C. Hepatocyte/fibroblast co-cultures were encapsulated at a final concentration of 8×10^6 hepatocytes/ml pre-polymer, in the absence or presence of an additional 6×10^6 liver endothelial cells (LEC)/ml of pre-polymer.
Human albumin in serum or media samples was quantified by enzyme-linked immunosorbant assay performed using goat anti-human albumin antibody, horseradish peroxidase detection, and 3,3′,5,5′-tetramethylbenzidine development. Urea was measured by acid- and heat-catalyzed detection of diacetylmonoxime conversion to a colorimetric product. Alanine aminotransfer (ALT) and aspartate aminotransfer (AST) enzymatic levels were detected with clinical kits based on colorimetric endpoint methods. […]

In data set [2] the test system is luciferase-expressing Plasmodium berghei (Pb-luc). Particulars: Huh7.5 and HC04 hepatoma cells in alginate. As for the experimental part: Primary adult human hepatocytes and J2 stromal fibroblasts were seeded in lyophilized alginate sponges and infected with luciferase-expressing Plasmodium berghei (Pb-luc) three days post-seeding. Bioluminescence imaging was performed two days post-infection (FIG. 11a).
Next, the response of Pb-luc-infected hepatoma aggregates in alginate to primaquine treatment was tested.

A further data set concerns Mouse livers. Conditions: in vivo.

Experimental for Mouse livers: Serum samples acquired at 4 h following APAP exposure were assayed for the liver damage marker alanine transaminase (ALT) using an endpoint colorimetric enzymatic assay.
Serum samples acquired at 4 h following APAP exposure were assayed for the liver damage markers aspartame transaminase (AST) using an endpoint colorimetric enzymatic assay. Shown are individual data points for n=3 mice per group, where black bars represent average values for each group.
Explanted livers were sectioned and stained with H&E. Shown are representative sections.
At day 9 of implantation, mice were fed by oral gavage with 500 ml drinking water or 500 ml acetaminophen (APAP, 250 mg/kg) in water. Mice were fasted for 16 h prior to APAP administration. Following APAP exposure, blood was collected by retro-orbital draw at 4 h. Blood samples were acquired by retro-orbital draw at 4 h following APAP exposure, serum separated, and serum analyzed for enzymatic activity of alanine transaminase (ALT) and aspartame transaminase (AST), non-species specific markers of liver damage (Teco Diagnostics). Engineered liver mimetics and mouse livers were extracted for biochemical and histological analysis. Mouse livers were paraffin-embedded, sectioned with 5 um slices, de-paraffinized and stained for hematoxylin and eosin (H&E).
Experimental for human CYP2A6: Humanized mice established on a nude mouse background were administered coumarin at 80 mg/kg by intraperitoneal injection. Following drug administration, mice were bled by retro-orbital draw at specific timepoints, and drug concentration quantified by LC/MS/MS. Open circles represent humanized mice, and closed circles represent wild-type (no implant) mice. Error bars are SEM for n=3 mice per group.
(§1) Mice administered 80 mg/kg of coumarin injected i.p. or 2 mg/kg debrisoquine (DB) gavaged p.o were subjected to retro-orbital draw at 5, 10 15, 30, 60, 90, and 120 minutes after drug administration, and terminal urine collection at 4 h. From ˜100 ml blood collections, serum was separated by centrifugation at 1200 g for 10 minutes and stored at −20° C. […] The area under the curve from time 0 until the time of the last measurable plasma concentration (AUC0-t) was calculated using the linear trapezoidal. Peak concentration (Cmax) and time to reach maximum concentration (tmax) values were obtained directly from the plasma concentration-time profile. Metabolic ratios were determined by dividing the AUC0-t of metabolite by the AUC0-t of the parent drug.
(§2) Following coumarin or debrisoquine exposure, serum or urine was sampled for quantitation of drug parent and metabolite concentrations by liquid chromatography (LC)/MS/MS.
Experimental for human CYP2D6: Humanized mice established on a C57/Bl6 mouse background were administered debrisoquine at 2 mg/kg by oral gavage. Following drug administration, mice were bled by retro-orbital draw at specific timepoints, and drug concentration quantified by LC/MS/MS. […] Error bars are SEM for n=3 mice per group.
as §1, §2

In the case of `O=c1ccc2ccc(O)cc2o1` [7-HC, 7-hydroxycoumarin], the “Metabolic ratio (metabolite exposure over parent drug exposure, AUC), 7-HC/coumarin” value on human CYP2A6 is reported as over 0.1.
Turning to `COc1ccc2c(O[C@@H]3C[C@H]4C(=O)N[C@]5(C(=O)O)C[C@H]5/C=C\CCCCC[C@H](NC(=O)OC5CCCC5)C(=O)N4C3)cc(-c3csc(NC(C)C)n3)nc2c1` [BILN-2061], the “Response of HCV infection to anti-HCV therapy” value in the data set with hepatitis C virus is given as “responding”.
Take `N=C(N)N1Cc2ccccc2C(O)C1` (centres unmarked) [4-OHDB, 4-hydroxydebrisoquine]: in the data set with human CYP2D6, the “Metabolic ratio (metabolite exposure over parent drug exposure, AUC), 4-OHDB/debrisoquine” value was over 0.1.
On to `COc1ccc2[nH]c([S+]([O-])Cc3ncc(C)c(OC)c3C)nc2c1` (centres unmarked) [OME, omeprazole], for which the “Human serum albumin from humanized mice over time” value in the data set on human liver mimetics is reported as “not affected”.
With RGDS, the “Improvement of encapsulated HEP/FIB synthetic and secretory functions” value in data set [1] is listed as “two- to three-fold”.
For `COc1cc(NC(C)CCCN)c2ncccc2c1` (centres unmarked) [primaquine], the “Inhibition of parasite development (BLI quantification)” value in data set [2] is given as “greater effect on inhibiting parasite development in Huh7.5 than in HC04”.
On to `CC(=O)Nc1ccc(O)cc1` [APAP, acetaminophen], for which the “Mouse liver injury by serum liver function enzyme tests and histopathology” value in the data set with Mouse livers is “appeared uninjured”.
Consider `CO[C@H]1/C=C/O[C@@]2(C)Oc3c(C)c(O)c4c(O)c(c(/C=N/N5CCN(C)CC5)c(O)c4c3C2=O)NC(=O)/C(C)=C\C=C\[C@H](C)[C@H](O)[C@@H](C)[C@@H](O)[C@@H](C)[C@H](OC(C)=O)[C@@H]1C` [RIF, rifampin], for which the “Mouse liver injury by serum liver function enzyme tests and histopathology” value in the data set on Mouse livers is reported as “appeared uninjured”.
